These results are taken from paper PMC3166015 (Emerging Infectious Diseases, 2011).

In the assay the target is NA activity of oseltamivir-resistant (OR, H275Y) pandemic (H1N1) 2009 virus (Influenza A virus, UniProt C3W5S3, H275Y). It is filed as biochemical.

As for `CC(=O)N[C@H]1[C@H]([C@H](O)[C@H](O)CO)OC(C(=O)O)=C[C@@H]1N=C(N)N` [Zanamivir, zanamivir], the “susceptibility by NA inhibition assay” value is given as “sensitive”. `CCC(CC)[C@H](NC(C)=O)[C@@H]1[C@H](O)[C@@H](C(=O)O)C[C@H]1N=C(N)N` [peramivir]: the peramivir susceptibility result is “cross-resistance”.
